Activity and fold change (FC) data for one compound are collected here from ChEMBL document CHEMBL4334471, “Discovery of 1,8-disubstituted-[1,2,3]triazolo[4,5-c]quinoline derivatives as a new class of Hippo signaling pathway inhibitors” (Bioorg Med Chem Lett, 2019).

Assay [1] deals with RAF proto-oncogene serine/threonine-protein kinase (Homo sapiens), P04049 [Y340D,Y341D]. In words: Inhibition of recombinant human C-Raf Y340D/Y341D mutant (306 to end residues) assessed as residual activity at 10 uM poly(Glu, Tyr) 4:1 as substrate incubated 40 mins in presence of [gamma-33ATP] by scintillation counting based radiometry assay relative to control.
Assay [2] concerns A549. In words: Upregulation of CYR61 in human A549 cells incubated for 24 hrs by qRT-PCR analysis. The class given is functional, cell-based. Background: Real-time PCR tracks product formation cycle by cycle.
For assay [3], the target named is Macrophage colony-stimulating factor 1 receptor (Homo sapiens) (UniProt P07333). In words: Inhibition of recombinant human FMS (538 to end residues) assessed as residual activity at 10 uM using KKKSPGEYVNIEF as substrate at 40 mins in presence of [gamma-33ATP] by scintillation counting based radiometry assay relative to control.
Assay [4] relates to Serine/threonine-protein kinase B-raf (Homo sapiens), P15056 [V600E]. In words: Inhibition of recombinant full length human B-Raf V599E mutant (416 to end residues) assessed as residual activity at 10 uM using myelin basic protein as substrate incubated for 40 mins in presence of [gamma-33ATP] by scintillation counting based radiometry assay relative to control.
Assay [5] has as its system A549. In words: Inhibition of hippo signalling protein in human A549 cells cotransfected with CTGF promoter-driven firefly luciferase and CMV promoter-driven renilla luciferase gene assessed as increase in CTGF expression at 10 uM incubated for 24 hrs by dual-luciferase gene assay relative to control.
Assay [6] relates to Fibroblast growth factor receptor 1 (Homo sapiens), P11362 [V561M]. In words: Inhibition of recombinant human FGFR1 V561M mutant (456 to 765 residues) assessed as residual activity at 10 uM using KKKSPGEYVNIEF as substrate at 40 mins in presence of [gamma-33ATP] by scintillation counting based radiometry assay relative to control.
Sequence of Fibroblast growth factor receptor 1 (Homo sapiens), P11362 [V561M] (P11362 whole entry V561M, the tested form may be a part): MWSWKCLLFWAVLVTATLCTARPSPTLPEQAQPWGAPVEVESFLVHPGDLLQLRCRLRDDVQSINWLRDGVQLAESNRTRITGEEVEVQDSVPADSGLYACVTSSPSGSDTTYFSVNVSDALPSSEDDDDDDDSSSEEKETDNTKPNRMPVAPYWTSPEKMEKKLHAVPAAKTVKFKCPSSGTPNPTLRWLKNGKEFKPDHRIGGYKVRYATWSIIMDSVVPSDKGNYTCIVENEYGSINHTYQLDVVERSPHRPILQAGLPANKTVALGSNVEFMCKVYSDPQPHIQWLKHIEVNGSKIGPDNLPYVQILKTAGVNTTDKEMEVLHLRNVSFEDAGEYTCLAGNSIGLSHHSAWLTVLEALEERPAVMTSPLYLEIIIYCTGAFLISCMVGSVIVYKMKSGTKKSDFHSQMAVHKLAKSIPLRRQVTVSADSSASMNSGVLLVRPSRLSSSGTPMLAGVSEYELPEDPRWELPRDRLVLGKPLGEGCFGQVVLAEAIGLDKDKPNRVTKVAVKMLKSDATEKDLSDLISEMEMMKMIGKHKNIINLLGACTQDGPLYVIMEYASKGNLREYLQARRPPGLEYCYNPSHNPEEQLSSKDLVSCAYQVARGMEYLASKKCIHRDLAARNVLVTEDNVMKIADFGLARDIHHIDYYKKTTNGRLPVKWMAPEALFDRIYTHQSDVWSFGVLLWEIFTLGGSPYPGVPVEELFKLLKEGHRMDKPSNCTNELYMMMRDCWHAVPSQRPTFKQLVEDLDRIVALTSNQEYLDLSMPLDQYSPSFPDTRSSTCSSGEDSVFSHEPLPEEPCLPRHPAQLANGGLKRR
The target of assay [7] is Calcium/calmodulin-dependent protein kinase type 1 (Homo sapiens) (UniProt Q14012). Put plainly: Inhibition of recombinant human CaMKIalpha (2 to end residues) assessed as residual activity at 10 uM using […] incubated for 40 mins in presence of [gamma-33ATP] by scintillation counting based radiometry assay relative to control.
The target in assay [8] is Cyclin-dependent kinase 2/cyclin E1 (Homo sapiens) (UniProt P24864+P24941). In words: Inhibition of recombinant full length human CDK2/CyclinE assessed as residual activity at 10 uM using Histone H1 as substrate incubated for 40 mins in presence of [gamma-33ATP] by scintillation counting based radiometry assay relative to control. Type of assay: protein-complex assay.
The subject of assay [9] is Angiopoietin-1 receptor (Homo sapiens), Q02763 [Q939H,Q940H]. In words: Inhibition of recombinant human TIE2 Q939H/Q940H mutant (771 to end residues) assessed as residual activity at 10 uM using EFPIYDFLPAKKK as substrate incubated for 40 mins in presence of [gamma33P]ATP by scintillation counting based radiometry assay relative to control.
For assay [10], the target named is Tyrosine-protein kinase SYK (Homo sapiens) (UniProt P43405). Put plainly: Inhibition of recombinant human full length SYK assessed as residual activity at 10 uM using poly(Glu, Tyr) 4:1 as substrate incubated for 40 mins in presence of [gamma33P]ATP by scintillation counting based radiometry assay relative to control.
Assay [11] addresses Epidermal growth factor receptor (Homo sapiens) (UniProt P00533). In words: Inhibition of recombinant human EGFR (696 to end residues) assessed as residual activity at 10 uM using poly(Glu, Tyr) 4:1 as substrate at 40 mins in presence of [gamma-33ATP] by scintillation counting based radiometry assay relative to control.
For assay [12], the target named is Calcium/calmodulin-dependent protein kinase type 1B (Homo sapiens) (UniProt Q6P2M8). Put plainly: Inhibition of recombinant full length human CaMKIbeta assessed as residual activity at 10 uM using KKLRRTLSFAEP as substrate incubated for 40 mins in presence of [gamma-33ATP] by scintillation counting based radiometry assay relative to control.
Sequence of Calcium/calmodulin-dependent protein kinase type 1B (Homo sapiens) (Q6P2M8 whole entry): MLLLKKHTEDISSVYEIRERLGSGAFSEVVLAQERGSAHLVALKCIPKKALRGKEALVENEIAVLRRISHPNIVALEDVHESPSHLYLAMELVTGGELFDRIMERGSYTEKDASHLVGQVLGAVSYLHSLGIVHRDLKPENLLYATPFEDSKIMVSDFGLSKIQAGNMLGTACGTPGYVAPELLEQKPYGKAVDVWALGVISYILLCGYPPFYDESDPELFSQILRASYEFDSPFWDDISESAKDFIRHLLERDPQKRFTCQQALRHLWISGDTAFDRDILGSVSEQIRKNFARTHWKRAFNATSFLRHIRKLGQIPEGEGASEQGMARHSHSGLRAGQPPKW
Another assay is filed under the species Mus musculus. Put plainly: Inhibition of mouse MAPK2 assessed as residual activity at 10 uM relative to control.
For assay [13], the target named is AP2-associated protein kinase 1 (Homo sapiens) (UniProt Q2M2I8). In words: Inhibition of human AAK1 assessed as residual activity at 10 uM using peptide as substrate incubated for 120 mins in presence of [gamma-33ATP] by scintillation counting based radiometry assay relative to control.
Sequence of AP2-associated protein kinase 1 (Homo sapiens) (Q2M2I8 whole entry, looked up): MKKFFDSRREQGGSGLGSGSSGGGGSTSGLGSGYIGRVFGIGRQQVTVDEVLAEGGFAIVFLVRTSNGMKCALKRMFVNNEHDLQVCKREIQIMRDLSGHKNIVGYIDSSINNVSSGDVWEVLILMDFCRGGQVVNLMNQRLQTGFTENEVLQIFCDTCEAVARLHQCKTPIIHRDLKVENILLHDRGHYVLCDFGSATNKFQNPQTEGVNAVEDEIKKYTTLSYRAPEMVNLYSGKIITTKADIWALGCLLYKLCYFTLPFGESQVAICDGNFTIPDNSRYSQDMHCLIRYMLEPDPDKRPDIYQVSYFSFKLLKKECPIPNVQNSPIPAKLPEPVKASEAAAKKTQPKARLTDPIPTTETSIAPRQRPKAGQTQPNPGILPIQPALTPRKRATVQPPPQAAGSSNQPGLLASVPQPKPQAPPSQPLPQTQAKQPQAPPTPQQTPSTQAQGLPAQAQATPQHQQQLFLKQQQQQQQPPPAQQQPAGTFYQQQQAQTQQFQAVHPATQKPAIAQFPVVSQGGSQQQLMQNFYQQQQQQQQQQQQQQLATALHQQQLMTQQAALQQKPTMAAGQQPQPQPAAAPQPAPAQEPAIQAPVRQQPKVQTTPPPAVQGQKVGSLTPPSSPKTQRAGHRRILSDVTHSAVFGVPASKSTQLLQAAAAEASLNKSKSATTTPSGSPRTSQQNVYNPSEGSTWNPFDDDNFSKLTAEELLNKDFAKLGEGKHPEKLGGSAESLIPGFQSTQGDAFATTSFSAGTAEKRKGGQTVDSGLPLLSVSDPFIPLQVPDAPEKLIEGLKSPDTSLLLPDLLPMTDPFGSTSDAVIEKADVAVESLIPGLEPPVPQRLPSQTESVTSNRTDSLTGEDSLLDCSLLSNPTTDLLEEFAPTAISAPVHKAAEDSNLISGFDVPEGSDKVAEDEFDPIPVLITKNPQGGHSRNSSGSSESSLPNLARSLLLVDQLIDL
In assay [14] the target is Insulin-like growth factor 1 receptor (Homo sapiens) (UniProt P08069). Put plainly: Inhibition of human IGF1R activated (959 to end residues) assessed as residual activity at 10 uM using KKKSPGEYVNIEFG as substrate after 40 mins by [gamma-33ATP] radiometric assay relative to control.
Assay [15] has as its target Inhibitor of nuclear factor kappa-B kinase subunit beta (Homo sapiens) (UniProt O14920). In words: Inhibition of full length human IKKbeta assessed as residual activity at 10 uM using peptide as substrate after 40 mins by [gamma-33ATP] radiometric assay relative to control.
Assay [16] addresses Proto-oncogene tyrosine-protein kinase receptor Ret (Homo sapiens) (UniProt P07949). In words: Inhibition of recombinant human Ret (658 to end residues) assessed as residual activity at 10 uM using KKKSPGEYVNIEFG as substrate incubated for 40 mins in presence of [gamma33P]ATP by scintillation counting based radiometry assay relative to control.
Assay [17] concerns the target Mitogen-activated protein kinase kinase kinase 9 (Homo sapiens) (UniProt P80192). Put plainly: Inhibition of recombinant human MLK1 (134 to 414 residues) assessed as residual activity at 10 uM using casein as substrate incubated for 40 mins in presence of [gamma-33ATP by scintillation counting based radiometry assay relative to control.
Assay [18] addresses G protein-coupled receptor kinase 6 (Homo sapiens) (UniProt P43250). Put plainly: Inhibition of recombinant full length human GRK6 assessed as residual activity at 10 uM using casein as substrate at 40 mins in presence of [gamma-33ATP] by scintillation counting based radiometry assay relative to control.
Assay [19] deals with Glycogen synthase kinase-3 alpha (Homo sapiens), P49840 [UNDEFINED MUTATION]. In words: Inhibition of human GSK-3alpha S449A mutant (2 to end residues) assessed as residual activity at 10 uM using phospho GS2 peptide as substrate after 40 mins by [gamma-33ATP] radiometric assay.
Assay [20] concerns the target Serine/threonine-protein kinase NIM1 (Homo sapiens) (UniProt Q8IY84). In words: Inhibition of recombinant full length human NIM1 assessed as residual activity at 10 uM using KKKVSRSGLYRSPSMPENLNRPR as substrate measured after 40 mins in presence of [gamma33P]ATP by scintillation counting based radiometry assay relative to control.
Assay [21] deals with Rhodopsin kinase GRK7 (Homo sapiens) (UniProt Q8WTQ7). Put plainly: Inhibition of recombinant full length human GRK7 assessed as residual activity at 10 uM using casein as substrate at 40 mins in presence of [gamma-33ATP] by scintillation counting based radiometry assay relative to control.

Sequence of Epidermal growth factor receptor (Homo sapiens) (P00533 whole entry): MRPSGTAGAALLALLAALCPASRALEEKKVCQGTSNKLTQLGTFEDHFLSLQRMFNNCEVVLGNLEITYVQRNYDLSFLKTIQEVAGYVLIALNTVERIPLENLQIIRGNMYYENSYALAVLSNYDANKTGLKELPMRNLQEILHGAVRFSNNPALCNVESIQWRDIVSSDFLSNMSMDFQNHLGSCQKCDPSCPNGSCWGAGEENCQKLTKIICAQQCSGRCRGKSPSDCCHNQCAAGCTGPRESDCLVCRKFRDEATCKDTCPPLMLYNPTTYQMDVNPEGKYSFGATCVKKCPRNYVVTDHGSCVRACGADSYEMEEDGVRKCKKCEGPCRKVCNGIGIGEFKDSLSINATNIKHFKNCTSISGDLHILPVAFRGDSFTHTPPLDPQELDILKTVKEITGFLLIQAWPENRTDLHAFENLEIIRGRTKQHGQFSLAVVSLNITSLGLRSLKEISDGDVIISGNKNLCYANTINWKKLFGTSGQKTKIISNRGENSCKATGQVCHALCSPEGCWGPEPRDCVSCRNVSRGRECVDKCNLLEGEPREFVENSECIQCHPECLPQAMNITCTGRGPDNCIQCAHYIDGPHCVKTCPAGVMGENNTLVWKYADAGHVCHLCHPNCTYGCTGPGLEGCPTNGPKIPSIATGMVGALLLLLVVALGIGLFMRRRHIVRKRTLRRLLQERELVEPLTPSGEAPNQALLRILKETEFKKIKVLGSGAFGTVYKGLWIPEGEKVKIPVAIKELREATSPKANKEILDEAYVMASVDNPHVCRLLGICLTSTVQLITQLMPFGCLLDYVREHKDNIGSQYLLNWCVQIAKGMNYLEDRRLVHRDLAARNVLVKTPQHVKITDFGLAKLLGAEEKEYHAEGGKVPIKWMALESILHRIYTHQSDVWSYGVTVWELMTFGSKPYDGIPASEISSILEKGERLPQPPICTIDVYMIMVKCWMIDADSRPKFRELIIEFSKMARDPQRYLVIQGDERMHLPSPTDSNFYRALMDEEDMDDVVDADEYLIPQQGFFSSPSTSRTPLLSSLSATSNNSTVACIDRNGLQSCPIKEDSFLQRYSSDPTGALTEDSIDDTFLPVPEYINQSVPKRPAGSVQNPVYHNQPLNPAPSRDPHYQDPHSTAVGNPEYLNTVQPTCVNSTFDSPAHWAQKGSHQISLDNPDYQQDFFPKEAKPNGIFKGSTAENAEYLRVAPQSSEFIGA
Sequence of Proto-oncogene tyrosine-protein kinase receptor Ret (Homo sapiens) (P07949 whole entry, the tested form may be a part): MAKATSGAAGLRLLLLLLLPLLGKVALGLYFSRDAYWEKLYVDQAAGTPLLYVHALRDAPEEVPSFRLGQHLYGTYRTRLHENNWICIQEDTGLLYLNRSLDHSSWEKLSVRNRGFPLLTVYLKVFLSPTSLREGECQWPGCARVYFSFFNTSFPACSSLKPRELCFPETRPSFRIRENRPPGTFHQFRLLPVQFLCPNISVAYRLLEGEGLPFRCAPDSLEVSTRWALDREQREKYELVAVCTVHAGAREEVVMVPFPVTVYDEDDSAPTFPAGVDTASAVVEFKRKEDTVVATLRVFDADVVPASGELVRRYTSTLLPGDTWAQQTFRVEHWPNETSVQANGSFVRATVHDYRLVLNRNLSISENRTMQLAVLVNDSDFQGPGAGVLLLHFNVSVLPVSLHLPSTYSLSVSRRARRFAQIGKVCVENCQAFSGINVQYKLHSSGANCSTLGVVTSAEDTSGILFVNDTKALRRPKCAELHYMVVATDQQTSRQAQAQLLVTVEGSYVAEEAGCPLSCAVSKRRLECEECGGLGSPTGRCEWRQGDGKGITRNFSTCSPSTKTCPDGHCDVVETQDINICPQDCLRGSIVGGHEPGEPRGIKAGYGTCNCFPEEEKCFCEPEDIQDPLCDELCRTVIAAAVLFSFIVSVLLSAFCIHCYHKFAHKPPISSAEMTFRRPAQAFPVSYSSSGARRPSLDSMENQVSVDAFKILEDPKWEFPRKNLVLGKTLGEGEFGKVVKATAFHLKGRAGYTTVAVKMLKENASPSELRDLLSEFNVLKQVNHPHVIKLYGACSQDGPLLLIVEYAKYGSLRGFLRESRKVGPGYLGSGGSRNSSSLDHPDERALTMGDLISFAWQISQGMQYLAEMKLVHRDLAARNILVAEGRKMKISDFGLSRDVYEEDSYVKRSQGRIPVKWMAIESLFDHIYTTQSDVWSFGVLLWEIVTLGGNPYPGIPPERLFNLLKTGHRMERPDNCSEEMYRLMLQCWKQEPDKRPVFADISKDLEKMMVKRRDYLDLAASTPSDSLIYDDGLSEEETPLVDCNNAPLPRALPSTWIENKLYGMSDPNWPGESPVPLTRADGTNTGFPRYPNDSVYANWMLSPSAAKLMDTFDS
Sequence of G protein-coupled receptor kinase 6 (Homo sapiens) (P43250 whole entry, looked up): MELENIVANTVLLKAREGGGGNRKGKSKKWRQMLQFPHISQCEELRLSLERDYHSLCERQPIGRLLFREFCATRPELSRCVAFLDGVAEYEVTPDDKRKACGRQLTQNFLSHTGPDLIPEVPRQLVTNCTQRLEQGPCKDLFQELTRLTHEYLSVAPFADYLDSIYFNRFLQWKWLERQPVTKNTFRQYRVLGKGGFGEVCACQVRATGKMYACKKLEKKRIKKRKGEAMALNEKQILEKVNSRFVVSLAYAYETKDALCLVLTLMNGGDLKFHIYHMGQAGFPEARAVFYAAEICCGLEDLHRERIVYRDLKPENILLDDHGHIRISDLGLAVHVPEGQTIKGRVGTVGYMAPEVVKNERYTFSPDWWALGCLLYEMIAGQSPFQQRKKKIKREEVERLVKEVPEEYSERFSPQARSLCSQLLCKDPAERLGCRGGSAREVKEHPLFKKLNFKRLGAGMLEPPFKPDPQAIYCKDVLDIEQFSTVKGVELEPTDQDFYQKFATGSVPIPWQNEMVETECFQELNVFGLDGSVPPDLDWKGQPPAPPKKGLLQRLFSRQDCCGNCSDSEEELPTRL

For `C[C@@H](c1ccccc1)n1nnc2cnc3ccc(-c4cnc5[nH]ccc5c4)cc3c21`, the Activity was 77% in assay [1]; “Dose-dependent effect” in the assay on A549 [2]; 21% in assay [3]; 64% in assay [4]; 22% in assay [6]; 28% in assay [7]. The Activity was 72% in assay [8]; 50% in [9]; 41% in assay [10]; 90% in assay [11]; 67% in assay [12]; 100% in the assay filed under Mus musculus. The Activity in assay [13] amounted to 78%; in assay [14] it was 79%; in assay [15], 96%; in assay [16], 57%; in assay [17] it was 41%; in assay [18], 96%. For the same compound, the results for the Activity in assay [19], in [20] and in [21] were 79%, 99% and 90%, respectively. In addition, in the assay with A549 [5], the fold change (FC) stood at 13.5.
